Tests used:
OVCAR-3 = test: cells; settings: Homo sapiens
NCI-H226 = test: NCI growth inhibition and cytotoxicity screen, Lung Cancer panel; settings: Homo sapiens
HL-60(TB) = test: cells; settings: Homo sapiens
HCT-116 = test: NCI growth inhibition and cytotoxicity screen, Colon Cancer panel; settings: Homo sapiens
SN12C = test: NCI growth inhibition and cytotoxicity screen, Renal Cancer panel; settings: Homo sapiens
NCI-H23 = test: NCI growth inhibition and cytotoxicity screen, Lung Cancer panel; settings: Homo sapiens
NCI/ADR-RES = test: NCI growth inhibition and cytotoxicity screen, Ovarian Cancer panel; settings: Homo sapiens
HS 578T = test: NCI growth inhibition and cytotoxicity screen, Breast Cancer panel; settings: Homo sapiens
IGROV1 = test: NCI growth inhibition and cytotoxicity screen, Ovarian Cancer panel; settings: Homo sapiens
KM12 = test: NCI growth inhibition and cytotoxicity screen, Colon Cancer panel; settings: Homo sapiens
SK-OV-3 = test: NCI growth inhibition and cytotoxicity screen, Ovarian Cancer panel; settings: Homo sapiens
MOLT-4 = test: NCI growth inhibition and cytotoxicity screen, Leukemia panel; settings: Homo sapiens
SK-MEL-28 = test: NCI growth inhibition and cytotoxicity screen, Melanoma panel; settings: Homo sapiens
COLO 205 = test: NCI growth inhibition and cytotoxicity screen, Colon Cancer panel; settings: Homo sapiens
UO-31 = test: NCI growth inhibition and cytotoxicity screen, Renal Cancer panel; settings: Homo sapiens
786-0 = test: as above; settings: Homo sapiens
BT-549 = test: NCI growth inhibition and cytotoxicity screen, Breast Cancer panel; settings: Homo sapiens
RPMI-8226 = test: NCI growth inhibition and cytotoxicity screen, Leukemia panel; settings: Homo sapiens
SNB-19 = test: NCI growth inhibition and cytotoxicity screen, CNS Cancer panel; settings: Homo sapiens
SNB-75 = test: as above; settings: Homo sapiens
LOX-IMVI = test: NCI growth inhibition and cytotoxicity screen, Melanoma panel; settings: Homo sapiens
CCRF-CEM = test: NCI growth inhibition and cytotoxicity screen, Leukemia panel; settings: Homo sapiens
A549/ATCC = test: NCI growth inhibition and cytotoxicity screen, Lung Cancer panel; settings: Homo sapiens
T-47D = test: NCI growth inhibition and cytotoxicity screen, Breast Cancer panel; settings: Homo sapiens, T47D
PC-3 = test: NCI growth inhibition and cytotoxicity screen, Prostate Cancer panel; settings: Homo sapiens
HOP-92 = test: NCI growth inhibition and cytotoxicity screen, Lung Cancer panel; settings: Homo sapiens
SF-539 = test: NCI growth inhibition and cytotoxicity screen, CNS Cancer panel; settings: Homo sapiens
NCI-H522 = test: NCI growth inhibition and cytotoxicity screen, Lung Cancer panel; format: cell-based; settings: Homo sapiens, NCI-H522, Table 1, cell line NCIH522 (Lung Cancer)
HCC-2998 = test: NCI growth inhibition and cytotoxicity screen, Colon Cancer panel; settings: Homo sapiens
M14 = test: NCI growth inhibition and cytotoxicity screen, Melanoma panel; settings: Homo sapiens
SW-620 = test: NCI growth inhibition and cytotoxicity screen, Colon Cancer panel; settings: Homo sapiens
HOP-62 = test: NCI growth inhibition and cytotoxicity screen, Lung Cancer panel; settings: Homo sapiens

COc1cc(/C=C/c2nc3ccccc3s2)cc(OC)c1OC [Formula (I)(d)]
GI50 (OVCAR-3; OVCAR-3): 0.069 nM
CC50 (OVCAR-3; OVCAR-3, read-out: LC50): > 100 µM
GI50 (NCI-H226; NCI-H226): 0.24 nM
CC50 (NCI-H226; NCI-H226, read-out: LC50): 88.5 µM
GI50 (HL-60(TB); HL-60): 0.037 nM
CC50 (HL-60(TB); HL-60, read-out: LC50): > 100 µM
GI50 (HCT-116; HCT-116): 7.2 pM
CC50 (HCT-116; HCT-116, read-out: LC50): > 100 µM
GI50 (SN12C): 9.37 nM
CC50 (SN12C; read-out: LC50): > 100 µM
GI50 (NCI-H23; NCI-H23): 0.72 nM
CC50 (NCI-H23; NCI-H23, read-out: LC50): > 100 µM
GI50 (NCI/ADR-RES): 0.1 nM
CC50 (NCI/ADR-RES; read-out: LC50): > 100 µM
GI50 (HS 578T): 0.17 nM
CC50 (HS 578T; read-out: LC50): > 100 µM
GI50 (IGROV1; IGROV-1): 0.24 nM
CC50 (IGROV1; IGROV-1, read-out: LC50): 94.2 µM
GI50 (KM12; KM12): 0.072 nM
CC50 (KM12; KM12, read-out: LC50): 41.6 µM
GI50 (SK-OV-3; SK-OV-3): 0.16 nM
CC50 (SK-OV-3; SK-OV-3, read-out: LC50): > 100 µM
GI50 (MOLT-4; MOLT-4): 1.28 nM
CC50 (MOLT-4; MOLT-4, read-out: LC50): > 100 µM
GI50 (SK-MEL-28; SK-MEL-28): 0.31 nM
CC50 (SK-MEL-28; SK-MEL-28, read-out: LC50): 50.5 µM
GI50 (COLO 205; COLO 205): 0.049 nM
CC50 (COLO 205; COLO 205, read-out: LC50): 24.6 µM
GI50 (UO-31; UO-31): 0.37 nM
CC50 (UO-31; UO-31, read-out: LC50): > 100 µM
GI50 (786-0; 786-0): 1.32 nM
CC50 (786-0; 786-0, read-out: LC50): > 100 µM
GI50 (BT-549; BT-549): 3.7 nM
CC50 (BT-549; BT-549, read-out: LC50): 58.8 µM
GI50 (RPMI-8226; RPMI-8226): 0.15 nM
CC50 (RPMI-8226; RPMI-8226, read-out: LC50): > 100 µM
GI50 (SNB-19; SNB-19): 0.095 nM
CC50 (SNB-19; SNB-19, read-out: LC50): > 100 µM
GI50 (SNB-75; SNB-75): 0.16 nM
CC50 (SNB-75; SNB-75, read-out: LC50): > 100 µM
GI50 (LOX-IMVI): 1.9 nM
CC50 (LOX-IMVI; read-out: LC50): 67.9 µM
GI50 (CCRF-CEM): 0.13 nM
CC50 (CCRF-CEM; read-out: LC50): > 100 µM
GI50 (A549/ATCC; A549): 0.11 nM
CC50 (A549/ATCC; A549, read-out: LC50): > 100 µM
GI50 (T-47D): 0.96 nM
CC50 (T-47D; read-out: LC50): > 100 µM
GI50 (PC-3; PC-3): 0.13 nM
CC50 (PC-3; PC-3, read-out: LC50): > 100 µM
GI50 (HOP-92; HOP-92): 0.036 nM
CC50 (HOP-92; HOP-92, read-out: LC50): 77.4 µM
GI50 (SF-539; SF-539): 0.076 nM
CC50 (SF-539; SF-539, read-out: LC50): 56.2 µM
GI50 (NCI-H522): 0.16 nM
CC50 (NCI-H522; read-out: LC50 (the source's name)): 47.9 µM
GI50 (HCC-2998; HCC 2998): 2.23 nM
CC50 (HCC-2998; HCC 2998, read-out: LC50): 63.5 µM
GI50 (M14; M14): 0.063 nM
CC50 (M14; M14, read-out: LC50): 48.5 µM
GI50 (SW-620; SW-620): 0.43 nM
CC50 (SW-620; SW-620, read-out: LC50): > 100 µM
GI50 (HOP-62; HOP-62): 0.39 nM
CC50 (HOP-62; HOP-62, read-out: LC50): 81.5 µM

Source: patent US9884842B2, “Combretastatin analogs” (The Board of Trustees of the University of Arkansas, priority 2013, dated 2018)
